Values of other authors, collected in patent publication US20260009079A1, “BIOMARKERS OF PREGNANCY LOSS” (The University of Warwick, priority 2022, published 2026).

Test system: bone marrow-derived MSCs
Settings: given over 3 menstrual cycles; previously reported (Tewary et al., 2020)

N[C@@H](CC(=O)N1CCn2c(nnc2C(F)(F)F)C1)Cc1cc(F)c(F)cc1F [sitagliptin]
recruitment of bone marrow-derived MSCs: increases
